Assay results from ChEMBL document CHEMBL1201862, “PubChem BioAssay data set” (2004).
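Cells were grown in 96-well plates and exposed to each compound for 48 hours at five concentrations; endpoints were interpolated linearly between bracketing concentrations, or set to the highest concentration if not reached. GI50 marks 50% less growth.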 The source made the active and inactive calls. Rule as the data show it: active = GI50 up to about 1.1 µM and inactive = higher.

Experiments:
Experiment in all cases: inhibition of tumour cell growth, NCI panel, 48 h
[1] = system: 786-0
[2] = system: A498
[3] = system: A549
[4] = system: ACHN
[5] = system: CAKI-1
[6] = system: CCRF-CEM
[7] = system: COLO 205
[8] = system: DLD-1
[9] = system: DMS-114
[10] = system: EKVX
[11] = system: HCC 2998
[12] = system: HCT-116
[13] = system: HL-60
[14] = system: HOP-62
[15] = system: HOP-92
[16] = system: HT-29
[17] = system: IGROV-1
[18] = system: K562
[19] = system: KM-20L2
[20] = system: KM12
[21] = system: M14
[22] = system: M19-MEL
[23] = system: MOLT-4
[24] = system: Malme-3M
[25] = system: NCI-H23
[26] = system: NCI-H460
[27] = system: NCI-H522
[28] = system: OVCAR-3
[29] = system: OVCAR-4
[30] = system: OVCAR-5
[31] = system: OVCAR-8
[32] = system: RPMI-8226
[33] = system: RXF 393
[34] = system: RXF 631
[35] = system: SF-268
[36] = system: SF-295
[37] = system: SF-539
[38] = system: SK-MEL-28
[39] = system: SK-MEL-2
[40] = system: SK-MEL-5
[41] = system: SK-OV-3
[42] = system: SN12C
[43] = system: SNB-19
[44] = system: SR
[45] = system: SW-620
[46] = system: TK-10
[47] = system: UACC-257
[48] = system: UACC-62
[49] = system: UO-31
[50] = system: DMS-273
[51] = system: LOX IMVI
[52] = system: LXFL 529
[53] = system: SNB-75
[54] = system: SNB-78
[55] = system: U-251

Measured: GI50

CNS(=O)(=O)NNS(=O)(=O)c1ccc(Cl)cc1
inactive: [1] > 100 µM | [2] > 100 µM | [3] > 100 µM | [4] > 100 µM | [5] > 100 µM | [6] > 100 µM | [7] > 100 µM | [8] > 100 µM | [9] > 100 µM | [10] > 100 µM | [11] > 100 µM | [12] > 100 µM | [13] > 100 µM | [14] > 100 µM | [15] > 100 µM | [16] > 100 µM | [17] > 100 µM | [18] > 100 µM | [19] > 100 µM | [20] > 100 µM | [21] > 100 µM | [22] > 100 µM | [23] > 100 µM | [24] > 100 µM | [25] > 100 µM | [26] > 100 µM | [27] > 100 µM | [28] > 100 µM | [29] > 100 µM | [30] > 100 µM | [31] > 100 µM | [32] > 100 µM | [33] > 100 µM | [34] > 100 µM | [35] > 100 µM | [36] > 100 µM | [37] > 100 µM | [38] > 100 µM | [39] > 100 µM | [40] > 100 µM | [41] > 100 µM | [42] > 100 µM | [43] > 100 µM | [44] > 100 µM | [45] > 100 µM | [46] > 100 µM | [47] > 100 µM | [48] > 100 µM | [49] 48.2 µM

CCCCCCCc1cc(OC(=O)c2c(C)cc(OC)cc2O)cc(O)c1C(=O)O
inactive: [1] 19 µM | [2] 19.1 µM | [3] 29.9 µM | [4] 24.7 µM | [5] 22.5 µM | [6] 24.7 µM | [7] 20.7 µM | [8] 19.8 µM | [50] 28.8 µM | [10] 25.2 µM | [11] 20.3 µM | [13] 26.5 µM | [14] 18.5 µM | [15] 26 µM | [16] 32.5 µM | [17] 22.7 µM | [18] 33.9 µM | [19] 21.2 µM | [20] 23.1 µM | [51] 21.3 µM | [52] 18.2 µM | [21] 21.3 µM | [22] 23.6 µM | [23] 27.7 µM | [24] 19.8 µM | [25] 20.3 µM | [26] 19.3 µM | [27] 23.8 µM | [28] 14.6 µM | [29] 28.1 µM | [30] 16.6 µM | [31] 27.1 µM | [32] 22.6 µM | [33] 22 µM | [34] 25.5 µM | [35] 20.2 µM | [36] 19.3 µM | [37] 17.6 µM | [38] 20.1 µM | [39] 19.1 µM | [40] 21.6 µM | [41] 24.5 µM | [42] 26.6 µM | [43] 26.4 µM | [53] 19 µM | [54] 29.2 µM | [45] 26.2 µM | [46] 28.7 µM | [55] 17.9 µM | [47] 30.4 µM | [48] 21 µM | [49] 16.9 µM
